Source: patent US20100173888A1 (Pfizer Inc, priority 2008, published 2010)

target: T1, human recombinant H-PGDS (Homo sapiens, UniProt O60760); experiment: Slightly modified fluorescence intensity h-PGDS TBA enzyme assay (1:40,000 enzyme, 40 second reaction, 1/2 log dilutions, top concentration typically 10 μM); assay type: biochemical; settings: slightly modified assay: 1:40,000 human recombinant H-PGDS
Protocol: Fluoresecence Intensity h-PGDSTBA Enzyme Assay
Prostaglandin D Synthase (PGDS) converts the substrate prostaglandin H2 (PGH2) to prostaglandin D2. The depletion of PGH2 was measured via an Fe(II) reduction of the remaining PGH2 to malondialdehyde (MDA) and 12-HHT. The enzyme assay is based on the quantitative formation of a fluorescent complex from the non-fluorescent compounds MDA and 2-thiobarbituric acid (TBA), substantially as described in U.S. patent application publication US-2004/152148 by Lombardt.
Examples 6-8, 11a-16, 23, 26-47, 49-103, 105-113, 115-118 and 126-128 were tested in a slightly modified assay: The enzyme assay (30 μls during biological process) contained 100 mM Trizma pH 8.0, 100 μM MgCl2, 0.1 mg/ml IgG Rabbit serum, 5.0 μM PGH2 (Cayman; ethanol solution, #17020), 2.5 mM L-Glutathione (Sigma; reduced form #G4251), 1:40,000 human recombinant H-PGDS (from 1 mg/ml), 0.5% DMSO and inhibitor (varying concentration). 3 μls of diluted inhibitor (dissolved in DMSO) was plated into a 384-well assay plate followed by a 24 μl addition of an enzyme solution containing h-PGDS, Trizma, MgCl2, IgG and L-Glutathione. After pre-incubation of inhibitor and enzyme solution for 10 minutes at room temperature, the reaction was initiated with a 3 μl addition of substrate solution in 10 mM HCl. The reaction was terminated after 40 second by the addition of 3 μl stop buffer containing FeCl2 and citric acid. After addition of 45 μls of TBA plates were heated for one hour in a 70° C. oven. Plates were cooled at room temperature overnight and read on a plate reader the next day with excitation @ 530 nm and emission @ 560 nm. IC50' s of inhibitors were calculated with a 4-parameter fit using 11 inhibitor concentrations in duplicate with ½ log serial dilutions. Controls on each plate included no inhibitor (zero % effect) and an inhibitor 500-fold in excess of its' IC50 (100% effect). The highest inhibitor concentration tested was typically 10 μM.

T1 sequence (O60760 whole entry): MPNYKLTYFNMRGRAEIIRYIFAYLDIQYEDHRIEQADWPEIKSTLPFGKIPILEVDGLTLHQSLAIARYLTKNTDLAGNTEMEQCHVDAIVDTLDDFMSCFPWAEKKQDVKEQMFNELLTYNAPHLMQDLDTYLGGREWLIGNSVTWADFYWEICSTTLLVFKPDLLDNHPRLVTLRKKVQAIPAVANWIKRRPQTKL

SMILES	IC50 [nM]
N[C@H]1CCCC[C@@H]1NC(=O)[C@@H]1CCC[C@H](NC(=O)c2ccc(-c3cccc(F)c3)nc2)C1 (mixture of isomers) [Example 64B, N-[cis-3-{[(1S,2S)-2-aminocyclohexyl]carbamoyl}cyclohexyl]-6-(3-fluorophenyl)nicotinamide]	64.6
N[C@@H]1CCCC[C@H]1NC(=O)[C@@H]1CCC[C@H](NC(=O)c2ccc(-c3cccc(F)c3)nc2)C1 (mixture of isomers) [Example 64C, N-[cis-3-{[(1R,2R)-2-aminocyclohexyl]carbamoyl}cyclohexyl]-6-(3-fluorophenyl)nicotinamide]	47
O=C(N[C@H]1CCC[C@@H](C(=O)N[C@@H]2CCNC2=O)C1)c1ccc(-c2cccc(F)c2)nc1 (mixture of isomers) [Example 64G, 6-(3-fluorophenyl)-N-[cis-3-{[(3R)-2-oxopyrrolidin-3-yl]carbamoyl}cyclohexyl]nicotinamide]	17.2
O=C(N[C@H]1CCC[C@@H](C(=O)N[C@H]2CCNC2=O)C1)c1ccc(-c2cccc(F)c2)nc1 (mixture of isomers) [Example 64H, 6-(3-fluorophenyl)-N-[cis-3-{[(3S)-2-oxopyrrolidin-3-yl]carbamoyl}cyclohexyl]nicotinamide]	13
O=C(N[C@H]1CCC[C@@H](C(=O)N[C@@H]2CCOC2)C1)c1ccc(-c2cccc(F)c2)nc1 (mixture of isomers) [Example 64K, 6-(3-fluorophenyl)-N-{cis-3-[(3R)-tetrahydrofuran-3-ylcarbamoyl]cyclohexyl}nicotinamide]	10.9
N[C@H]1CCCC[C@H]1NC(=O)[C@@H]1CCC[C@H](NC(=O)c2ccc(-c3cccc(F)c3)nc2)C1 (mixture of isomers) [Example 64L, N-[(1S,3R)-3-{[cis-2-aminocyclohexyl]carbamoyl}cyclohexyl]-6-(3-fluorophenyl)nicotinamide]	255
CCN1CCN(C(=O)[C@H]2CCC[C@@H](NC(=O)c3ccc(-c4cccc(F)c4)nc3)C2)CC1 (racemic) [Example 41, N-{cis-3-[(4-Ethylpiperazin-1-yl)carbonyl]cyclohexyl}-6-(3-fluorophenyl)nicotinamide]	7.18
O=C(N[C@@H]1CCCC[C@@H]1O)c1ccc(-c2cccc(F)c2)nc1 (relative stereo) [Example 23]	17.4
O=C(N[C@@H]1CCC[C@H](O)C1)c1ccc(-c2cccc(F)c2)nc1 (relative stereo) [Example 26, 6-(3-Fluorophenyl)-N-[cis-3-hydroxycyclohexyl]nicotinamide]	18.2
O=C(N[C@@H]1CCC[C@H](C(=O)O)C1)c1ccc(-c2cccc(F)c2)nc1 (relative stereo) [Example 27, cis-3-({[6-(3-Fluorophenyl)pyridin-3-yl]carbonyl}amino)cyclohexanecarboxylic acid]	14.2
O=C(N[C@H]1CCC[C@@H](C(=O)N2CCC(O)CC2)C1)c1ccc(-c2cccc(F)c2)nc1 (relative stereo) [Example 28, 6-(3-Fluorophenyl)-N-{cis-3-[(4-hydroxypiperidin-1-yl)carbonyl]cyclohexyl}nicotinamide]	3.72
O=C(N[C@H]1CCC[C@@H](C(=O)N2CCCC2)C1)c1ccc(-c2cccc(F)c2)nc1 (relative stereo) [Example 29, 6-(3-Fluorophenyl)-N-[cis-3-(pyrrolidin-1-ylcarbonyl)cyclohexyl]nicotinamide]	5.02
O=C(N[C@H]1CCC[C@@H](C(=O)NCc2ccccc2)C1)c1ccc(-c2cccc(F)c2)nc1 (relative stereo) [Example 30, N-[cis-3-(Benzylcarbamoyl)cyclohexyl]-6-(3-fluorophenyl)nicotinamide]	25.6
CN(C)C(=O)[C@H]1CCC[C@@H](NC(=O)c2ccc(-c3cccc(F)c3)nc2)C1 (relative stereo) [Example 31, N-[cis-3-(Dimethyicarbamoyl)cyclohexyl]-6-(3-fluorophenyl)nicotinamide]	10.8
CCN(C)C(=O)[C@@H]1CCC[C@H](NC(=O)c2ccc(-c3cccc(F)c3)nc2)C1 (relative stereo) [Example 32, N-{cis-3-[Ethyl(methyl)carbamoyl]cyclohexyl}-6-(3-fluorophenyl)nicotinamide]	37.9
O=C(N[C@H]1CCC[C@@H](C(=O)NC2CCCC2)C1)c1ccc(-c2cccc(F)c2)nc1 (relative stereo) [Example 33, N-[cis-3-(Cyclopentylcarbamoyl)cyclohexyl]-6-(3-fluorophenyl)nicotinamide]	10
CC(C)NC(=O)[C@@H]1CCC[C@H](NC(=O)c2ccc(-c3cccc(F)c3)nc2)C1 (relative stereo) [Example 34, 6-(3-Fluorophenyl)-N-[cis-3-(isopropylcarbamoyl)cyclohexyl]nicotinamide]	8.32
CN1CCN(C(=O)[C@@H]2CCC[C@H](NC(=O)c3ccc(-c4cccc(F)c4)nc3)C2)CC1 (relative stereo) [Example 35, 6-(3-Fluorophenyl)-N-{cis-3-[(4-methylpiperazin-1-yl)carbonyl]cyclohexyl}nicotinamide]	8.29
O=C(N[C@H]1CCC[C@@H](C(=O)N2CCOCC2)C1)c1ccc(-c2cccc(F)c2)nc1 (relative stereo) [Example 36, 6-(3-Fluorophenyl)-N-[cis-3-(morpholin-4-ylcarbonyl)cyclohexyl]nicotinamide]	8.34
CNCCN(C)C(=O)[C@@H]1CCC[C@H](NC(=O)c2ccc(-c3cccc(F)c3)nc2)C1 (relative stereo) [Example 37, 6-(3-Fluorophenyl)-N-[cis-3-{methyl[2-(methylamino)ethyl]carbamoyl}cyclohexyl]nicotinamide]	25.4
CC(C)(C)NC(=O)[C@@H]1CCC[C@H](NC(=O)c2ccc(-c3cccc(F)c3)nc2)C1 (relative stereo) [Example 38, N-[cis-3-(tert-Butylcarbamoyl)cyclohexyl]-6-(3-fluorophenyl)nicotinamide]	8.43
CN(Cc1ccccc1)C(=O)[C@@H]1CCC[C@H](NC(=O)c2ccc(-c3cccc(F)c3)nc2)C1 (relative stereo) [Example 39, N-{cis-3-[Benzyl(methyl)carbamoyl]cyclohexyl}-6-(3-fluorophenyl)nicotinamide]	4.26
CCN(CC)C(=O)[C@@H]1CCC[C@H](NC(=O)c2ccc(-c3cccc(F)c3)nc2)C1 (relative stereo) [Example 40, N-[cis-3-(Diethylcarbamoyl)cyclohexyl]-6-(3-fluorophenyl)nicotinamide]	9
O=C(N[C@H]1CCC[C@@H](C(=O)N2CCNCC2)C1)c1ccc(-c2cccc(F)c2)nc1 (relative stereo) [Example 42, 6-(3-Fluorophenyl)-N-[cis-3-(piperazin-1-ylcarbonyl)cyclohexyl]nicotinamide]	10.2
O=C(N[C@H]1CCC[C@@H](C(=O)N2CCN(C3CC3)CC2)C1)c1ccc(-c2cccc(F)c2)nc1 (relative stereo) [Example 43, N-{cis-3-[(4-Cyclopropylpiperazin-1-yl)carbonyl]cyclohexyl}-6-(3-fluorophenyl)nicotinamide]	14.4
O=C(N[C@H]1CCC[C@@H](C(=O)NCCCO)C1)c1ccc(-c2cccc(F)c2)nc1 (relative stereo) [Example 64E, 6-(3-fluorophenyl)-N-{cis-3-[(3-hydroxypropyl)carbamoyl]cyclohexyl}nicotinamide]	9.3

target: T1, human recombinant H-PGDS; experiment: Fluorescence intensity h-PGDS TBA enzyme assay (PGH2 depletion, MDA/TBA fluorescence); assay type: biochemical; settings: 1:175,000 human recombinant H-PGDS, 42 second reaction, 3-fold serial dilutions, highest concentration typically 1 μM
Method in brief: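 Recombinant human H-PGDS preincubated with inhibitor 10 min at room temperature in pH 8.0 Tris, MgCl2, IgG, 2.5 mM glutathione, 0.5% DMSO. Reaction with 5.0 μM PGH2 stopped at 42 s with FeCl2/citric acid; MDA–TBA fluorescence (ex 530/em 565 nm) read after 70° C. IC50 by 4-parameter fit, 11 concentrations.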

SMILES	IC50 [nM]
Cc1nnc(C[C@H]2CC[C@@H](NC(=O)c3ccc(-c4cccc(F)c4)nc3)CC2)o1 [Example 273, 6-(3-Fluorophenyl)-N-{cis-4-[(5-methyl-1,3,4-oxadiazolyl-2-yl)methyl]cyclohexyl}nicotinamide]	5.4
CN1CCN(C(=O)C[C@H]2CC[C@@H](NC(=O)c3ccc(-c4cccc(F)c4)nc3)CC2)CC1 [Example 274, 6-(3-Fluorophenyl)-N-{cis-4-[2-(-methylpiperazin-1-yl)-2-oxoethyl]cyclohexyl}nicotinamide]	13.7
CC(C)(O)[C@H]1CC[C@@H](NC(=O)c2ccc(-c3cccc(F)c3)nc2)CC1 [Example 275, 6-(3-Fluorophenyl)-N-[cis-4-(1-hydroxy-1-methylethyl)cyclohexyl]nicotinamide]	81.8
